Values quoted from earlier work as cited in patent publication US20050165089A1, “Compounds, compositions and methods” (priority 2003, published 2005).

Test system: A549 cells

| GI50 [nM] | Structure (SMILES) |
| --- | --- |
| 1000 | O=c1[nH]cc(F)c(=O)[nH]1 [5-fluorouracil] |
| 63 | COc1cccc2c1C(=O)c1c(O)c3c(c(O)c1C2=O)C[C@@](O)(C(=O)CO)C[C@@H]3O[C@H]1C[C@H](N)[C@H](O)[C@H](C)O1 [doxorubicin] |
| 500000 | NC(=O)NO [hydroxyurea] |
| 4 | CC(=O)O[C@H]1C(=O)[C@@]2(C)[C@H]([C@H](OC(=O)c3ccccc3)[C@]3(O)C[C@H](OC(=O)[C@H](O)[C@@H](NC(=O)c4ccccc4)c4ccccc4)C(C)=C1C3(C)C)[C@]1(OC(C)=O)CO[C@@H]1C[C@@H]2O [paclitaxel] |
